Like-named read-outs stand apart in the source and are kept apart here.
How the values were obtained:
α1β2γ2S-GABAA = target: T1, α1β2γ2S-GABAA (Homo sapiens, UniProt P14867+P18507+P47870); experiment: Off-target ligand-gated ion channels in Xenopus oocytes; format: cell-based; conditions: agonist 100 µM GABA; mean ± SEM
T1 construct: expressed in transfected cells; host or cells: Xenopus oocytes
Procedure: (§1) EU93-108 was further examined for its behavior against common off-target receptors. First, selectivity for GluN2B over other ion channels in the brain was examined via two-electrode voltage clamp recordings of Xenopus oocytes expressing AMPA, kainate, nicotinic acetylcholine, serotonin, GABA, glycine, and ATP receptors. Current responses were tested with saturating concentrations of agonist in both the absence and presence of 10 μM EU93-108, and confirmed selectivity for GluN2B-containing NMDA receptors over AMPA, kainate, GABA, glycine, ATP, and 5-HT3A receptors (Supporting Table S3).
(§2) Receptor Agonist % Control
(§3) Supplemental Table S3. Off-target actions of EU93-108 at ligand-gated ion channels expressed in Xenopus oocytes. The mean ± standard error of the mean for agonist plus 10 μM EU93-108 as a percentage of agonist in vehicle are given for each compound and receptor tested. Number of oocytes tested is given in parentheses.

α7-nACh = target: T2, α7-nACh (Homo sapiens, UniProt P36544); experiment: as above; format: cell-based; conditions: agonist 300 µM acetylcholine; mean ± SEM
T2 construct: expressed in transfected cells; host or cells: Xenopus oocytes
T2 sequence (P36544 23-502): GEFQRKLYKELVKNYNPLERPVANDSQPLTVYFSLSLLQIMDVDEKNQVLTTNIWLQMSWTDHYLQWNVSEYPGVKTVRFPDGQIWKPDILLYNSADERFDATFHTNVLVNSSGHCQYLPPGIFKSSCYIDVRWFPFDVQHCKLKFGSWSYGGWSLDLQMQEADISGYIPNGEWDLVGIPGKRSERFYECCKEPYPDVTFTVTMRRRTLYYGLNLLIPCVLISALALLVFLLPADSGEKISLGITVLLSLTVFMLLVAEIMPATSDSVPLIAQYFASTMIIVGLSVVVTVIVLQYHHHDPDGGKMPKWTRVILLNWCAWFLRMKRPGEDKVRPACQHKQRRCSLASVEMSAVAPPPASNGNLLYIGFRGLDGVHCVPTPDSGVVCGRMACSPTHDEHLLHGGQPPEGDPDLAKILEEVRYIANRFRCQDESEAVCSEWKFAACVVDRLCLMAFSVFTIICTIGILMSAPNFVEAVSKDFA
Procedure: as §1, §2, §3

Sigma1 (σ1) [1] = target: Sigma1 (σ1) (Homo sapiens, UniProt Q99720); experiment: Radioligand binding assay (NIMH PDSP)
Sigma1 (σ1) (Homo sapiens, UniProt Q99720), sequence (Q99720 whole entry): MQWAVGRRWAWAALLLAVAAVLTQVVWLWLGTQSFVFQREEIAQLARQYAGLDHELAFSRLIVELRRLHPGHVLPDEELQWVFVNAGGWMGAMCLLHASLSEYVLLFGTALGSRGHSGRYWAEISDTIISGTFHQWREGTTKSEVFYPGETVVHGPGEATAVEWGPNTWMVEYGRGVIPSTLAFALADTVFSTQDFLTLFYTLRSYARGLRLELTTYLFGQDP

Sigma1 (σ1) [2] = experiment: Radioligand binding assay (NIMH PDSP); set-up: species or system human; conditions: ratio of Ki to the IC50 for EU93-108 (555 nM) at GluN2B
C57BL/6J mice = experiment: Preestablished morphine tolerance (tolerant mice, tail immersion test); format: in vivo; conditions: males 10 mg/kg, females 20 mg/kg i.p.
Excerpt: We next wanted to assess EU93-108 for effects on other facets of tolerance. Specifically, we were interested in whether EU93-108 could increase tail flick latency in mice that were already tolerant to morphine (i.e., preestablished tolerance). To assess the effect of EU93-108 on preestablished tolerance, five groups were used (n = 8 per group): vehicle/saline, vehicle/morphine, ifenprodil/morphine, EU93-108/saline, and EU93-108/morphine. All groups except for the vehicle/saline control group were administered morphine three times per day (according to the stair stepping protocol outlined in Figure 11) at gradually increasing doses from 25 to 40 mg/kg three times a day at 3–4 h intervals for three consecutive days until tolerance was observed on day 4 (Figure 12, black circles).
Figure 11 Dosing regimen to assess effects of EU93-108 on tolerant mice. TIT = tail immersion test. All mice received morphine or saline three times a day according to the protocol in Figure 9. Doses of morphine are shown above the arrows, in mg/kg. Once tolerance was established on day 4, the mice were randomly assigned to receive vehicle, EU93-108, or ifenprodil once a day for two consecutive days. […]
Mouse weights were recorded on the day of each experiment. […] Three recordings were taken for each mouse, and each data point is expressed as the mean of the three recordings. […] The identities were not decoded until the data were analyzed.
Prism 9.3.1 software (GraphPad, San Diego, CA) was used for all data analysis and visualization. Data for intrinsic antinociception was analyzed using one-way ANOVA and Dunnett’s post hoc test for multiple comparisons where each group was compared to vehicle. Data for acute morphine potentiation experiments were analyzed using one-way ANOVA and Tukey’s post hoc test for multiple comparisons was also used, where each group mean was compared to the mean of every other group. Data for tolerance experiments were analyzed using repeated measures two-way ANOVA and Bonferroni post hoc analysis. […]

[3] = Determination of plasma and brain concentrations; format: in vivo; conditions: Sprague-Dawley, rat, ip, male rats, 60 mg/kg i.p.
Procedure: Brain concentrations were measured from whole forebrain homogenate at each time point.
Trunk blood was collected in K-EDTA tubes and then spun in a microcentrifuge at 3500 rpm for 10 min to separate plasma, which was then transferred to a clean tube and frozen on dry ice. To prepare forebrain tissue samples, the whole brain was removed from the skull, the cerebellum and brainstem cut away, the meninges were removed, and the forebrain was then rinsed with ice-cold normal saline, after which it was blotted dry with filter paper and weighed on a microbalance. To each forebrain 2.5 mL of ice-cold 50 mM K-phosphate buffer (pH 7.4) was then added and the samples homogenized with a hand-held homogenizer. The brain homogenates were then transferred to clean tubes (2 per brain) and frozen on dry ice.
Plasma and brain homogenate samples were analyzed by LC-MS/MS operating in multiple reaction monitor mode (MRM) by Ricerca Biosciences (Dublin, OH). […] The amount of parent compound in each plasma or brain sample was calculated by comparing the response of the analyte in the sample to that of a standard curve (Ricerca, OH).

[4] = target: diheteromeric rat GluN1/GluN2Ac1/GluN2Ac2 (r2Ac1/r2Ac2) (Rattus norvegicus, UniProt P35439+Q00959); experiment: Concentration-inhibition curves, oocytes, C1/C2-tagged NMDARs
diheteromeric rat GluN1/GluN2Ac1/GluN2Ac2 (r2Ac1/r2Ac2), sequence (Q00959 23-1464, other chains not shown): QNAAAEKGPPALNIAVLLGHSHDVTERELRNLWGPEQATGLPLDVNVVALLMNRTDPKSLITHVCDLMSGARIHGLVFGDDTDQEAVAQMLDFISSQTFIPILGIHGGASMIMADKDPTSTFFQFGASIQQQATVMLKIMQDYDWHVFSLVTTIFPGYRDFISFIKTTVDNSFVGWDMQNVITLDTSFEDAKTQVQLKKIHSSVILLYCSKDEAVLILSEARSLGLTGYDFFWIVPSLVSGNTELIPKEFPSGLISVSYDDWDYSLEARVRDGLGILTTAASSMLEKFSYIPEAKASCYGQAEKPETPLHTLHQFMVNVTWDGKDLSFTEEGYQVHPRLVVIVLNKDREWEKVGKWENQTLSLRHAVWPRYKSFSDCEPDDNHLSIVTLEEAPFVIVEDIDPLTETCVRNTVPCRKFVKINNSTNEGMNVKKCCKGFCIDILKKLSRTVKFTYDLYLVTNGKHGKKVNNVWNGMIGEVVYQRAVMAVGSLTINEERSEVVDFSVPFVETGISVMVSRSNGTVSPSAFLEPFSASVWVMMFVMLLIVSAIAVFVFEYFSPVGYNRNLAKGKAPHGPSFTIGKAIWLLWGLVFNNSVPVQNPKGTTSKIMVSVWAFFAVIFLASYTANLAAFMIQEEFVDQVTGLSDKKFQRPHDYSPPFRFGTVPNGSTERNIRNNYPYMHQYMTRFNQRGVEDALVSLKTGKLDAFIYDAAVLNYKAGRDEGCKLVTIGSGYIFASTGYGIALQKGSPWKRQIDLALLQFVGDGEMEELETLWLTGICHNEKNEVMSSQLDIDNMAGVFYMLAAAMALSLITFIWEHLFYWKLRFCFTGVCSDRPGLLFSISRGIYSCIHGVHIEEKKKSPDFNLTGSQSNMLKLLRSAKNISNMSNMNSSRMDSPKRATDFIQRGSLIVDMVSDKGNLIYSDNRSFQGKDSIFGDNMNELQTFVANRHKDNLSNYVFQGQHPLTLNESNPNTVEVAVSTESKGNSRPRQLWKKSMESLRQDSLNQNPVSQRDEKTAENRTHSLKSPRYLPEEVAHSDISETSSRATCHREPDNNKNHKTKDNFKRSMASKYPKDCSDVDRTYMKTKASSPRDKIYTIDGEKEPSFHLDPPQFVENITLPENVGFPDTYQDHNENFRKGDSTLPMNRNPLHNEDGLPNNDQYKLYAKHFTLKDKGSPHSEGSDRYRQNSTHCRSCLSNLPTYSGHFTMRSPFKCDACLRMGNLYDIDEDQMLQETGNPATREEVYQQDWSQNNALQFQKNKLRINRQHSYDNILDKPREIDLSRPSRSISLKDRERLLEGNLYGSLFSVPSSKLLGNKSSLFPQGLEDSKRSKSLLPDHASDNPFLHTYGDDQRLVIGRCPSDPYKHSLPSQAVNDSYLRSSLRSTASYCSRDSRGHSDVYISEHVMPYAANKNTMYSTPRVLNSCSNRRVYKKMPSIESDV
diheteromeric rat GluN1/GluN2Ac1/GluN2Ac2 (r2Ac1/r2Ac2), sequence (Q00959 23-1464, other chains not shown): as above

GluN1/GluN2A = GluN1/GluN2A (Rattus norvegicus, UniProt P35439+Q00959)
GluN1/GluN2A, sequence (Q00959 23-1464, other chains not shown): as above

GluN1/GluN2C = GluN1/GluN2C (Rattus norvegicus, UniProt P35439+Q00961)
[5] = agonist 100 µM glutamate, 30 µM glycine, mean ± SEM
[6] = read-out: Mean % Inhibition by 10 μM EU93-108

## CS(=O)(=O)Nc1ccc(OC[C@@H](O)CN2CCN(c3ccc(F)c(F)c3)CC2)cc1 [EU93-108, (S)-N-(4-(3-(4-(3,4-Difluorophenyl)piperazin-1-yl)-2-hydroxypropoxy)phenyl)methanesulfonamide]
α1β2γ2S-GABAA
  % Control 10 µM EU93-108: 92.8 ± 1.5%
α7-nACh
  % Control 10 µM EU93-108: 70.9 ± 6.5%
Sigma1 (σ1) [1]; primary screen, 10 µM, quadruplicate
  inhibition at 10 µM: 69.2%
Sigma1 (σ1) [1]; secondary screen, binding competition curve
  Ki: 0.505 µM
Sigma1 (σ1) [2]
  Ki/IC50 of EU93-108: 0.91
C57BL/6J mice; co-administered with morphine
  tail flick latency in morphine-tolerant mice, day 5 vs day 4: did not show a further decrease in latency on day 5
C57BL/6J mice; given with saline (no morphine)
  tail flick latency in morphine-tolerant mice, day 5 vs day 4: most significant decrease in latency
[3]; brain (forebrain homogenate) / plasma, from Cmax, read-out: brain-to-plasma ratio
  Kp at 60 min: 0.6
[3]; brain (whole forebrain homogenate), whole forebrain homogenate, read-out: Cmax in brain
  Cmax: 18 µM
[3]; plasma and brain (forebrain homogenate)
  half-life: > 240 min
[3]; plasma and brain (forebrain homogenate), read-out: time of peak concentration (Tmax) (converted)
  Tmax: 30 min
[3]; plasma, read-out: Cmax in plasma
  Cmax: 30 µM
[4]; 10 μM, % of maximal response, n = 6
  residual current at 10 μM: 105%
[4]; residual response, Table S1, N = 6
  Ymin: 104.8
GluN1/GluN2A; [5]
  % Control 10 µM EU93-108: 95.6 ± 1.6%
GluN1/GluN2A; [6]
  inhibition at 10 µM: 4.6 ± 1.5%
GluN1/GluN2C; [5]
  % Control 10 µM EU93-108: 97 ± 2.8%
GluN1/GluN2C; [6]
  inhibition at 10 µM: 5.3 ± 2.2%

Reference: article PMC9983021, “Novel GluN2B-Selective NMDA Receptor Negative Allosteric Modulator Possesses Intrinsic Analgesic Properties and Enhances Analgesia of Morphine in a Rodent Tail Flick Pain Model” (ACS Chemical Neuroscience, 2023)
